Test results reported in ChEMBL document CHEMBL1131349, “4-[(1H-imidazol-4-yl) methyl] benzamidines and benzylamidines: novel antagonists of the histamine H3 receptor” (Bioorg Med Chem Lett, 1998).

These compounds were tested on Cavia porcellus (assay: In vivo antihistaminic (Histamine H3) activity was determined in guinea pig). Settings: not given.
Type: functional

SMILES | ED50
S=C(NC1CCCCC1)N1CCC(c2cnc[nH]2)CC1 [THIOPERAMIDE] | 0.4 mg/kg
N=C(NCc1ccc(Cl)cc1)c1ccc(Cc2c[nH]cn2)cc1 | 0.3 mg/kg
N=C(Cc1ccc(Cc2c[nH]cn2)cc1)NCc1ccc(Cl)cc1 | 0.3 mg/kg

These compounds were tested on Cavia porcellus (assay: Percent inhibition of histamine H3 mediated antihistaminic activity in guinea pig was determined in vivo). Settings: not given.
Type: functional

SMILES | Inhibition
N=C(N)c1ccc(Cc2c[nH]cn2)cc1 | 33%

Each compound was assayed against Histamine H3 receptor (Cavia porcellus) (UniProt Q9JI35) (assay: Compound was tested for inhibition of N-alpha-methylhistamine binding to histamine H3 receptor in guinea pig brain membranes). Settings: Membrane, concentration not given here.
Type: cell membranes

Sequence of Histamine H3 receptor (Cavia porcellus) (Q9JI35 whole entry): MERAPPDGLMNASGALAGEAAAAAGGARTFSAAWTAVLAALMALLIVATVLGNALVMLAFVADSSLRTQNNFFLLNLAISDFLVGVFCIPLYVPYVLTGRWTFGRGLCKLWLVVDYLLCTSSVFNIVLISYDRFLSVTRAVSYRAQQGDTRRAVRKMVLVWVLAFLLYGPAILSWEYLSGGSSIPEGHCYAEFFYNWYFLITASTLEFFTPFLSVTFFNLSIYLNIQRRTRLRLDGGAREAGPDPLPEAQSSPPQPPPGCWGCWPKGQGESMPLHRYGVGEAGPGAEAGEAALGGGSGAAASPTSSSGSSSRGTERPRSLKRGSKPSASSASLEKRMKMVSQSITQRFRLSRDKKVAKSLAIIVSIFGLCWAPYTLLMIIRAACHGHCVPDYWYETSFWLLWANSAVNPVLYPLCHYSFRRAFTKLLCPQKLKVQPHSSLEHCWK

inhibition | SMILES
44% | N=C(NCc1ccncc1)c1ccc(Cc2c[nH]cn2)cc1
49% | N=C(N)c1ccc(-c2c[nH]cn2)cc1

The compounds below were run against Histamine H3 receptor (Cavia porcellus, UniProt Q9JI35) (assay: Inhibition of N-alpha-methylhistamine binding to histamine H3 receptor of guinea pig brain membranes). Settings: not given.
Sequence of Histamine H3 receptor (Q9JI35 whole entry): as above

SMILES | Ki
N=C(N)c1cccc(-c2c[nH]cn2)c1 | 350 nM
S=C(NC1CCCCC1)N1CCC(c2cnc[nH]2)CC1 [THIOPERAMIDE] | 7.3 nM
N=C(CCc1ccc(Cc2cnc[nH]2)cc1)NCc1ccc(Cl)cc1 | 175 nM
N=C(NCc1ccc(Cl)cc1)c1ccc(Cc2c[nH]cn2)cc1 | 16 nM
N=C(N)c1ccc(CCc2cnc[nH]2)cc1 | 165 nM
COc1ccc(C/N=C(\N)c2ccc(Cc3c[nH]cn3)cc2)cc1 | 513 nM
N=C(N)CCCc1c[nH]cn1 | 1.2 nM
